Laboratory results taken from US20240293343A1, “Benzylideneaminoguanidine derivatives as NR2B-selective NMDA receptor antagonists and their therapeutic applications” (InFlectis BioScience, priority 2023, published 2024).
Like-named read-outs stand apart in the source and are kept apart here.

Columns and labels:
NMDAR (NR1A/NR2B) = target: T1, NMDAR (NR1A/NR2B) (Homo sapiens, UniProt Q05586+Q13224); assay: NMDAR (NR1A/NR2B) Human Glutamate Ion Channel Cell Based Antagonist Ca2+ Flux Assay; settings: Hek293 cells expressing NMDAR subunit 1A/2B, FLIPR Tetra; read-out: IC50, antagonist activity on Ca^2+ flux
T1 construct: host or cells: HEK293
T1 sequence (Q13224 27-1484, other chains not shown): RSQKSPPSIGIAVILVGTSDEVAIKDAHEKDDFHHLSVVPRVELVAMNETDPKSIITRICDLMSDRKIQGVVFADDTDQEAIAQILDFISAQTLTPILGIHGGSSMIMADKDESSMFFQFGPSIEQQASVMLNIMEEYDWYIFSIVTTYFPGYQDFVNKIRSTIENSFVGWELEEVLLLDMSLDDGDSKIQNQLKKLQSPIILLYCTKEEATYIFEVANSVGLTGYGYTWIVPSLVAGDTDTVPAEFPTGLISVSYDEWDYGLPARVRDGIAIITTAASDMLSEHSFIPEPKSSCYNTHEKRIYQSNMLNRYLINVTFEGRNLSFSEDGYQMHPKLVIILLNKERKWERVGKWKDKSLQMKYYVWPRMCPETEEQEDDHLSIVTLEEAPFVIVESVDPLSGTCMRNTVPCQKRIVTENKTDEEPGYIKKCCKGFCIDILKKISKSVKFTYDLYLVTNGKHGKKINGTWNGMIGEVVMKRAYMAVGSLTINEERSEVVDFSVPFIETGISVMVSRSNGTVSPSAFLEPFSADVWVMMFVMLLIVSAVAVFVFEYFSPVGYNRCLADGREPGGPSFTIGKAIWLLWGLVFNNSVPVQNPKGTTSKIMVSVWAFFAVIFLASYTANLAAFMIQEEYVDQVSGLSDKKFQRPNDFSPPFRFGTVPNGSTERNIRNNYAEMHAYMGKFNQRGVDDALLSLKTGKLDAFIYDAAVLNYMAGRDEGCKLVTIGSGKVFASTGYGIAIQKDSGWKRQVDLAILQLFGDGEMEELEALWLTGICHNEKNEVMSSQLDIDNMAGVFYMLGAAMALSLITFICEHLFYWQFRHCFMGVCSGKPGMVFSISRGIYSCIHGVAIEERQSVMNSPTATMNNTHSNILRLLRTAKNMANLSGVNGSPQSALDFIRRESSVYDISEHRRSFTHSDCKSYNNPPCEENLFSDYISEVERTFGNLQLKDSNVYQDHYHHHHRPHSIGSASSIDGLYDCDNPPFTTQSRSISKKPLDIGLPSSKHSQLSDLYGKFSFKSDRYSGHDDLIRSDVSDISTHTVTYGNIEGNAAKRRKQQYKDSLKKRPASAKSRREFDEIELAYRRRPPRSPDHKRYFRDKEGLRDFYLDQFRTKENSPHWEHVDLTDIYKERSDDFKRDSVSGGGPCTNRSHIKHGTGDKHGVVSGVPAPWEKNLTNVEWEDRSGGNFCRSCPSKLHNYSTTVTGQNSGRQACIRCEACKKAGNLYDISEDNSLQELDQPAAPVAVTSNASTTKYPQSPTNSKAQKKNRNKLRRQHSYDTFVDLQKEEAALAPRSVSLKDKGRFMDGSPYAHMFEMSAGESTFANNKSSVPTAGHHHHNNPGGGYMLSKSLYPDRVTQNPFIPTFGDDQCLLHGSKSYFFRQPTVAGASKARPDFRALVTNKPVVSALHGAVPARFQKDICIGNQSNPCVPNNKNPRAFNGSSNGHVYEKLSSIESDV
Description: Briefly, Hek293 cells stably transfected to express NMDAR subunit 1A/2B were seeded into 384-well microplates and incubated at 37° C. Cells were loaded with dye prior to testing. […] Cells were further incubated for 30-60 minutes at 37° C., and compound activity on calcium flux was measured on a FLIPR Tetra (MDS).

[1] = target: T2, glycine binding to the NMDAR NR1 subunit (Rattus norvegicus, UniProt P35439); assay: NMDAR radiolabeled ligand displacement assay, MDL-105,519; settings: glycine site
T2 construct: tissue Eurofins 232910/233010/234000/SafetyScreen44 Panel

ion channel of the NMDAR = assay: NMDAR radiolabeled ligand displacement assay, MK-801; type: binding, rat; settings: pore channel
[2] = tested on: glutamate binding to the NMDAR NR2 subunit; assay: NMDAR radiolabeled ligand displacement assay, CGP-39653; set-up: species or system rat; settings: glutamate site
[3] = target: T3, Ifenprodil binding site on the NR2B subunit (Rattus norvegicus, UniProt P35439+Q00960); assay: NMDAR radiolabeled ligand displacement assay, Ifenprodil
T3 construct: tissue Eurofins 232910/233010/234000/SafetyScreen44 Panel; host or cells: rat cerebral cortex
T3 sequence (Q00960 27-1482, other chains not shown): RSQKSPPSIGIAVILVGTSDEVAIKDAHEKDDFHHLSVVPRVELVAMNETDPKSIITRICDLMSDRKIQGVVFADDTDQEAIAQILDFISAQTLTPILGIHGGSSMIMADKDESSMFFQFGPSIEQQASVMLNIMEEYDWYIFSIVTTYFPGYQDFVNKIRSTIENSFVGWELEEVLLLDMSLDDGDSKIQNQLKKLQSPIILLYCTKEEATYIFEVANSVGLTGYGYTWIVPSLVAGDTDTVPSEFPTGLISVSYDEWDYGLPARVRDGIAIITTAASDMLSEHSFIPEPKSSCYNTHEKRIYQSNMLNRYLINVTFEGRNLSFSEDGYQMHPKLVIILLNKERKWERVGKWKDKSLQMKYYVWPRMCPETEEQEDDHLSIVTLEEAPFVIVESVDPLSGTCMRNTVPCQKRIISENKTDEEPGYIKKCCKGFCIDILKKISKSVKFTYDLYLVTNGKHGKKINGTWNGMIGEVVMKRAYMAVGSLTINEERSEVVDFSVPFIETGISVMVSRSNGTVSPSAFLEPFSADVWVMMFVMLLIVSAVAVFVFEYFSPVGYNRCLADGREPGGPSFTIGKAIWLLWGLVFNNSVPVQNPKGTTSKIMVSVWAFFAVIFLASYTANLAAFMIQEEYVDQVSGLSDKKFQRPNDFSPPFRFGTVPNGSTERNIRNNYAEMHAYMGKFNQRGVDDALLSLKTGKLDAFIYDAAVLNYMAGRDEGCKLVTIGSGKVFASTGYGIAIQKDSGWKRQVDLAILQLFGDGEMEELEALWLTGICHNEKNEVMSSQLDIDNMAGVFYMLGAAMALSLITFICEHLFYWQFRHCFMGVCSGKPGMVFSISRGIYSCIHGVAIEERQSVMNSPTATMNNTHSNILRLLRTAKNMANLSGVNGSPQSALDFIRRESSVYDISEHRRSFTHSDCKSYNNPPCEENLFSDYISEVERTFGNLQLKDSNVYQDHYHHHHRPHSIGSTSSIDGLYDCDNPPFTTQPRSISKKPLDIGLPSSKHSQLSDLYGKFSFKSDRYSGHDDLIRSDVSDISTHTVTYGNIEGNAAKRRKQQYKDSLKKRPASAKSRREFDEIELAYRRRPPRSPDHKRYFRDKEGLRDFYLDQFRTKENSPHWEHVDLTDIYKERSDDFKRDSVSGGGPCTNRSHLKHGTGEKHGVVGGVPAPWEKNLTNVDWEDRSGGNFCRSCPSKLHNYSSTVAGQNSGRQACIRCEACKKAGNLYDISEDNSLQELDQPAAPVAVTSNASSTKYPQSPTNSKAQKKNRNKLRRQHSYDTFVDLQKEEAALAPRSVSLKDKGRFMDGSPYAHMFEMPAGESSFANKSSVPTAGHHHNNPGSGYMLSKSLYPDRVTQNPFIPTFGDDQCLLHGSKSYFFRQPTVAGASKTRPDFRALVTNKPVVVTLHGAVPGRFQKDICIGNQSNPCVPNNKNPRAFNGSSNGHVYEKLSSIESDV

[4] = human, cited from earlier work
[5] = tested on: NMDA-induced currents / cytosolic Ca^2+ load; settings: Ruiz et al. 2020; cited from earlier work
[6] = solid and solution states; cited from earlier work
sciatic nerve injury = assay: Mouse model of sciatic nerve injury (toe spreading, electromyography, histology); type: in vivo, mice (Swiss CD-1); settings: 1.5 mg/kg once daily per os
Description: 6-week-old Swiss (CD-1) male mice were provided by Janvier Labs and housed in an animal facility in a day/night inversed cycle. […] Mice were anesthetized with ketamine chlorohydrate (100 mg/kg) and xylazine (10 mg/kg) and placed on a heating pad. Skin was incised and the sciatic nerve exposed at mid-thigh level and lesioned with fine forceps to ensure peripheral injury. The nerve was crushed twice with a haemostatic forceps (width 1.5 mm; Koenig, Strasbourg, France) with a 90-degree rotation between each crush. The skin incision was sutured, and mice were allowed to recover isolated until the end of anesthesia. The hind limb, contralateral to the lesion, served as uninjured control. Analgesia was induced prior surgery and the following days with bunepronorphine (0.1 mg/kg). […] The loss of nerve function recovered progressively over a 4-5 weeks period after mechanical insult.
At day 0, on day 7, and on day 14 and day 21 post-surgery, the functionality of the nerve fibers was determined with an electromyography apparatus (Dantec, Natus, France), on the ipsilateral side and contralateral side. […] The compound muscle action potential (CMAP) was measured: more precisely the amplitude (mV) and the latency (ms) of the action potential were recorded in gastrocnemius muscle after stimulation of the sciatic nerve. […]

[7] = in vivo

Compound | IC50 (NMDAR (NR1A/NR2B)) [nM] | displacement of radiolabeled ligand MDL-105,519 [1] | displacement of radiolabeled ligand MK-801 (ion channel of the NMDAR) | displacement of radiolabeled ligand CGP-39653 [2] | IC50 [3] [nM] | also measured
CC(=O)O.N=C(N)N/N=C/c1c(Cl)cccc1Cl [Compound 1, 2-(2,6-dichlorobenzylidene)hydrazine-carboximidamide acetate salt] | 625 | unable to displace | unable to displace | unable to displace | 400 | adverse events resembling those present in schizophrenia ([4]; controlled and open therapeutic trials): none of the adverse events seen with compound 1 (i.e. guanabenz) resembled those present in schizophrenia; cardiovascular side effects [4]: rare, apart from a decrease in heart rate; reported side effects [4]: drowsiness, dry mouth, dizziness and weakness; NMDA-induced currents [5]: reducing; NMDA-induced cytosolic Ca^2+ load [5]: reducing; spontaneous isomerization (E/Z) [6]: practically insignificant
N=C(N)N/N=C/c1ccc(F)cc1Cl [Compound 3, 2-(2-chloro-4-fluoro-benzylidene)hydrazine-carboximidamide] | 702 | unable to displace | unable to displace | unable to displace | 250 | recovery of toe spreading compared to control group (sciatic nerve injury): faster; recovery of toe spreading, median time (printed median survival) (sciatic nerve injury; ipsilateral paw, vehicle usually after 10 days): 8 days
N=C(N)N/N=C/c1ccc(O)cc1Cl [Compound 19, 2-(2-chloro-4-hydroxybenzylidene)hydrazine-carboximidamide] | – | – | – | – | – | adverse events resembling those present in schizophrenia ([7]; human): None of the adverse events seen with compound 2 and 19 resembled those present in schizophrenia; compound-related hypotension and dizziness ([7]; human): No clinically significant compound 2 and 19-related hypotension, and dizziness; metabolite status in human [7]: major human metabolite of compound 2
C[C@]12N[C@H](Cc3ccccc31)c1ccccc12 [MK-801] | 69 | – | – | – | – | –
